{"source": "patent US9474790B2", "about": "“Stable, protracted GLP-1/glucagon receptor co-agonists for medical use” (Novo Nordisk A/S, priority 2013, dated 2016)", "note": "Numbered stars: 1 amine (or outer) side, 2 acyl side, 3 side chain; on linkers, the order of the positions; unused ones are H or OH. Bridge positions count the residues as written; N and C are the ends. Square brackets hold non-standard residues; d marks the D form. Side chains are listed from the residue outwards. Peptide text beside a SMILES is read from it. I, II: the chains in the order shown. * marks the point of attachment. C18 diacid = O=C(O)CCCCCCCCCCCCCCCCC(=O)*; γGlu = O=C(O)[C@H](CCC(=O)[*:2])N[*:1]; Ac4c = NC1(C(=O)O)CCC1; AEEA = NCCOCCOCC(=O)O; Aib = CC(C)(N)C(=O)O", "data": [{"experiment": "Thioflavin T (ThT) fibrillation assay for physical stability", "assay_type": "physicochemical", "settings": "250 μM in 10 mM HEPES buffer, pH 7.5, 37° C., shaking 960 rpm", "method_in_brief": "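Fibrillation was followed by ThT (1 μM) fluorescence every 20 min, 444/485 nm, for 250 μM peptide in 10 mM HEPES pH 7.5 shaken at 960 rpm, 37° C. Lag time (t0−2τ) and apparent rate constant (1/τ) come from a sigmoidal fit. Recovery is % of initial concentration remaining soluble after centrifugation and filtration (RP-HPLC).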", "units": {"THT assay Lag time (Ex. 76)": "h"}, "values": [{"smiles": "CC(C)C[C@H](NC(=O)[C@H](CC(C)C)NC(=O)[C@H](Cc1c[nH]c2ccccc12)NC(=O)[C@H](CCC(N)=O)NC(=O)[C@@H](NC(=O)[C@H](Cc1ccccc1)NC(=O)[C@H](CCC(=O)O)NC(=O)[C@H](CCC(N)=O)NC(=O)[C@H](C)NC(=O)[C@H](C)NC(=O)[C@H](CCCCN)NC(=O)[C@H](CO)NC(=O)[C@H](CC(=O)O)NC(=O)[C@H](CC(C)C)NC(=O)[C@H](Cc1ccc(O)cc1)NC(=O)[C@H](CCCCN)NC(=O)[C@H](CO)NC(=O)[C@H](CC(C)C)NC(=O)[C@H](CC(=O)O)NC(=O)[C@H](CO)NC(=O)[C@@H](NC(=O)[C@H](Cc1ccccc1)NC(=O)[C@@H](NC(=O)CNC(=O)[C@H](CCC(N)=O)NC(=O)C(C)(C)NC(=O)[C@@H](N)Cc1c[nH]cn1)[C@@H](C)O)[C@@H](C)O)C(C)C)C(=O)N[C@@H](CC(N)=O)C(=O)N[C@@H](CCCCNC(=O)CC[C@H](NC(=O)CC[C@H](NC(=O)COCCOCCNC(=O)COCCOCCNC(=O)CC[C@H](NC(=O)CCCCCCCCCCCCCCCCC(=O)O)C(=O)O)C(=O)O)C(=O)O)C(N)=O", "note": "[Example 8, N^ε29-[(4S)-4-carboxy-4-[[(4S)-4-carboxy-4-[[2-[2-[2-[[2-[2-[2-[[(4S)-4-carboxy-4-(17-carboxyheptadecanoylamino)butanoyl]amino]ethoxy]ethoxy]acetyl]amino]ethoxy]ethoxy]acetyl]amino]butanoyl]amino]butanoyl]-[Aib2,Leu10,Lys17,Ala18,Glu21,Leu27,Lys29]-Glucagon amide] (H-H[Aib]QGTFTSDLSKYLDSKAAQEFVQWLLNK([γGlu-γGlu-AEEA-AEEA-γGlu-C18 diacid])-NH2; N-terminus assumed)", "THT assay Lag time (Ex. 76)": 45}, {"smiles": "CC(C)C[C@H](NC(=O)[C@H](Cc1ccc(O)cc1)NC(=O)[C@H](CCCCN)NC(=O)[C@H](CO)NC(=O)[C@H](CC(C)C)NC(=O)[C@H](CC(=O)O)NC(=O)[C@H](CO)NC(=O)[C@@H](NC(=O)[C@H](Cc1ccccc1)NC(=O)[C@@H](NC(=O)CNC(=O)[C@H](CCC(N)=O)NC(=O)C(C)(C)NC(=O)[C@@H](N)Cc1c[nH]cn1)[C@@H](C)O)[C@@H](C)O)C(=O)N[C@@H](CC(=O)O)C(=O)N[C@@H](CCCCNC(=O)CC[C@H](NC(=O)CC[C@H](NC(=O)COCCOCCNC(=O)COCCOCCNC(=O)CC[C@H](NC(=O)CCCCCCCCCCCCCCCCC(=O)O)C(=O)O)C(=O)O)C(=O)O)C(=O)N[C@@H](CCCNC(=N)N)C(=O)N[C@@H](CCCNC(=N)N)C(=O)N[C@@H](C)C(=O)N[C@@H](CCCNC(=N)N)C(=O)N[C@@H](CCC(=O)O)C(=O)N[C@@H](Cc1ccccc1)C(=O)N[C@H](C(=O)N[C@@H](CCC(N)=O)C(=O)N[C@@H](Cc1c[nH]c2ccccc12)C(=O)N[C@@H](CC(C)C)C(=O)N[C@@H](CC(C)C)C(=O)N[C@@H](CC(N)=O)C(=O)N[C@H](C(N)=O)[C@@H](C)O)C(C)C", "note": "[Example 10, N^ε16-[(4S)-4-carboxy-4-[[(4S)-4-carboxy-4-[[2-[2-[2-[[2-[2-[2-[[(4S)-4-carboxy-4-(17-carboxyheptadecanoylamino)butanoyl]amino]ethoxy]ethoxy]acetyl]amino]ethoxy]ethoxy]acetyl]amino]butanoyl]amino]butanoyl]-[Aib2,Leu10,Lys16,Arg20,Glu21,Leu27]-Glucagon amide] (H-H[Aib]QGTFTSDLSKYLDK([γGlu-γGlu-AEEA-AEEA-γGlu-C18 diacid])RRAREFVQWLLNT-NH2; N-terminus assumed)", "THT assay Lag time (Ex. 76)": 7}, {"smiles": "CC(C)C[C@H](NC(=O)[C@H](CC(C)C)NC(=O)[C@H](Cc1c[nH]c2ccccc12)NC(=O)[C@H](CCC(N)=O)NC(=O)[C@@H](NC(=O)[C@H](Cc1ccccc1)NC(=O)[C@H](CCC(=O)O)NC(=O)[C@H](CCCNC(=N)N)NC(=O)[C@H](C)NC(=O)[C@H](CCCNC(=N)N)NC(=O)[C@H](CCCNC(=N)N)NC(=O)[C@H](CO)NC(=O)[C@H](CC(=O)O)NC(=O)[C@H](CC(C)C)NC(=O)[C@H](Cc1ccc(O)cc1)NC(=O)[C@H](CCCCN)NC(=O)[C@H](CO)NC(=O)[C@H](CC(C)C)NC(=O)[C@H](CC(=O)O)NC(=O)[C@H](CO)NC(=O)[C@@H](NC(=O)[C@H](Cc1ccccc1)NC(=O)[C@@H](NC(=O)CNC(=O)[C@H](CCC(N)=O)NC(=O)C(C)(C)NC(=O)[C@@H](N)Cc1c[nH]cn1)[C@@H](C)O)[C@@H](C)O)C(C)C)C(=O)N[C@@H](CC(N)=O)C(=O)N[C@@H](CCCCNC(=O)CC[C@H](NC(=O)CC[C@H](NC(=O)COCCOCCNC(=O)COCCOCCNC(=O)CC[C@H](NC(=O)CCCCCCCCCCCCCCCCC(=O)O)C(=O)O)C(=O)O)C(=O)O)C(N)=O", "note": "[Example 12, N^ε29-[(4S)-4-carboxy-4-[[(4S)-4-carboxy-4-[[2-[2-[2-[[2-[2-[2-[[(4S)-4-carboxy-4-(17-carboxyheptadecanoylamino)butanoyl]amino]ethoxy]ethoxy]acetyl]amino]ethoxy]ethoxy]acetyl]amino]butanoyl]amino]butanoyl]-[Aib2,Leu10,Arg20,Glu21,Leu27,Lys29]-Glucagon amide] (H-H[Aib]QGTFTSDLSKYLDSRRAREFVQWLLNK([γGlu-γGlu-AEEA-AEEA-γGlu-C18 diacid])-NH2)", "THT assay Lag time (Ex. 76)": 45}, {"smiles": "CC(C)C[C@H](NC(=O)[C@H](Cc1ccc(O)cc1)NC(=O)[C@H](CCCCN)NC(=O)[C@H](CO)NC(=O)[C@H](CC(C)C)NC(=O)[C@H](CC(=O)O)NC(=O)[C@H](CO)NC(=O)[C@@H](NC(=O)[C@H](Cc1ccccc1)NC(=O)[C@@H](NC(=O)CNC(=O)[C@H](CCC(N)=O)NC(=O)C1(NC(=O)[C@@H](N)Cc2c[nH]cn2)CCC1)[C@@H](C)O)[C@@H](C)O)C(=O)N[C@@H](CCC(=O)O)C(=O)N[C@@H](CCC(=O)O)C(=O)N[C@@H](CCCNC(=N)N)C(=O)N[C@@H](CCCNC(=N)N)C(=O)N[C@@H](C)C(=O)N[C@@H](CCCNC(=N)N)C(=O)N[C@@H](CC(=O)O)C(=O)N[C@@H](Cc1ccccc1)C(=O)N[C@H](C(=O)N[C@@H](CCC(N)=O)C(=O)N[C@@H](Cc1c[nH]c2ccccc12)C(=O)N[C@@H](CC(C)C)C(=O)N[C@@H](CC(C)C)C(=O)N[C@@H](CCCCNC(=O)CNC(=O)[C@H](CO)NC(=O)[C@H](CCC(=O)O)NC(=O)CNC(=O)[C@H](CO)NC(=O)CC[C@H](NC(=O)CC[C@H](NC(=O)CCCCCCCCCCCCCCCCC(=O)O)C(=O)O)C(=O)O)C(=O)N[C@H](C(N)=O)[C@@H](C)O)C(C)C", "note": "[Example 16, N^ε28-[2-[[(2S)-2-[[(2S)-4-carboxy-2-[[2-[[(2S)-2-[[(4S)-4-carboxy-4-[[(4S)-4-carboxy-4-(17-carboxyheptadecanoylamino)butanoyl]amino]butanoyl]amino]-3-hydroxypropanoyl]amino]acetyl]amino]butanoyl]amino]-3-hydroxypropanoyl]amino]acetyl]-[Acb2,Leu10,Glu15,Glu16,Arg20,Leu27,Lys28]-Glucagon amide] (I: H-H[Ac4c]QGTFTSDLSKYLEERRARDFVQWLLKT-NH2 / II: {C18 diacid-γGlu-γGlu}-SGESG; amide I:28-II:C; N-terminus assumed)", "THT assay Lag time (Ex. 76)": 45}]}]}
